According to patent publication US20240239752A1, “BICYCLIC HETEROAROMATIC INHIBITORS OF KLK5” (BioCryst Pharmaceuticals, Inc., priority 2021, published 2024):

target: T1, recombinant human KLK5 (Homo sapiens, UniProt Q9Y337); experiment: Kallikrein (KLK) 5 enzymatic assay (Boc-VPR-AMC fluorogenic substrate); type: biochemical; details: recombinant human KLK5 0.1 μg/well, Boc-VPR-AMC 100 μM, pH 7.5, room temperature, 1% DMSO; tested a minimum of three times
T1 construct: purchased Novoprotein or R&D Systems C415 or 1108-SE
T1 sequence (Q9Y337 23-293): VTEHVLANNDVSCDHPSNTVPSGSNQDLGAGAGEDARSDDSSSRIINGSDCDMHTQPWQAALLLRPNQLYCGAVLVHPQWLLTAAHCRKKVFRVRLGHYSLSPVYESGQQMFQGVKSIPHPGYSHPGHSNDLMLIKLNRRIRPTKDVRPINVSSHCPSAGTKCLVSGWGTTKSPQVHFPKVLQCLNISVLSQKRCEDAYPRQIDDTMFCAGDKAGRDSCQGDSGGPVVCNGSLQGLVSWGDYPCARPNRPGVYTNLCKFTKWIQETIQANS
In short: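 Fluorogenic rate assay at pH 7.5 (0.1 M NaH2PO4, 1% DMSO, room temperature), run at least three times per compound. Compound was premixed with 0.1 μg/well recombinant human KLK5 before adding 100 μM Boc-VPR-AMC; AMC release was read at ex 380/em 460 nm, and IC50 derived from inhibition of rate vs DMSO control.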

| Compound | IC50 |
| --- | --- |
| Nc1nccc2c(-c3ccc4c(c3)[C@H](Oc3ccccc3CC(=O)O)CC43CCN(CC(=O)O)CC3)cccc12 [Compound 415b, (R)-2-(2-((5-(1-aminoisoquinolin-5-yl)-1′-(carboxymethyl)-2,3-dihydrospiro[indene-1,4′-piperidin]-3-yl)oxy)phenyl)acetic acid] | < 1000 nM |
| CCCN1CCC2(CC1)C[C@@H](Oc1ccccc1CC(=O)O)c1cc(-c3cccc4c(N)nccc34)ccc12 [Compound 417b, (R)-2-(2-((5-(1-aminoisoquinolin-5-yl)-1′-propyl-2,3-dihydrospiro[indene-1,4′-piperidin]-3-yl)oxy)phenyl)acetic acid] | < 1000 nM |
| CCN1CCC2(CC1)C[C@@H](Oc1ccccc1CC(=O)O)c1cc(-c3cccc4c(N)nccc34)ccc12 [Compound 418c, (R)-2-(2-((5-(1-aminoisoquinolin-5-yl)-1′-ethyl-2,3-dihydrospiro[indene-1,4′-piperidin]-3-yl)oxy)phenyl)acetic acid] | < 1000 nM |
| N#Cc1cccc(CC(=O)O)c1O[C@@H]1CCc2ccc(-c3ccc4ccnc(N)c4c3)cc21 [Compound 429d, (R)-2-(2-((6-(1-aminoisoquinolin-7-yl)-2,3-dihydro-1H-inden-1-yl)oxy)-3-cyanophenyl)acetic acid] | 1000 to 10000 nM |
| N#Cc1cccc(CC(=O)O)c1O[C@@H]1CCc2ccc(-c3cccc4c(N)nccc34)cc21 [Compound 430b, (R)-2-(2-((6-(1-aminoisoquinolin-5-yl)-2,3-dihydro-1H-inden-1-yl)oxy)-3-cyanophenyl)acetic acid] | 1000 to 10000 nM |
| N#Cc1cccc(O[C@@H]2CCc3ccc(-c4ccc5ccnc(N)c5c4)cc32)c1CC(=O)O [Compound 432c, (R)-2-(2-((6-(1-aminoisoquinolin-7-yl)-2,3-dihydro-1H-inden-1-yl)oxy)-6-cyanophenyl)acetic acid] | 1000 to 10000 nM |
| N#Cc1cccc(O[C@@H]2CCc3ccc(-c4cccc5c(N)nccc45)cc32)c1CC(=O)O [Compound 433b, (R)-2-(2-((6-(1-aminoisoquinolin-5-yl)-2,3-dihydro-1H-inden-1-yl)oxy)-6-cyanophenyl)acetic acid] | < 1000 nM |
| Nc1nccc2ccc(-c3ccc4c(c3)[C@H](Oc3cccc(OC(F)(F)F)c3CC(=O)O)CC4)cc12 [Compound 434c, (R)-2-(2-((6-(1-aminoisoquinolin-7-yl)-2,3-dihydro-1H-inden-1-yl)oxy)-6-(trifluoromethoxy)phenyl)acetic acid] | 1000 to 10000 nM |
| Nc1nccc2c(-c3ccc4c(c3)[C@H](Oc3cccc(OC(F)(F)F)c3CC(=O)O)CC4)cccc12 [Compound 435b, (R)-2-(2-((6-(1-aminoisoquinolin-5-yl)-2,3-dihydro-1H-inden-1-yl)oxy)-6-(trifluoromethoxy)phenyl)acetic acid] | < 1000 nM |
| CCN1CCC2(CC1)C[C@@H](Oc1ccccc1CC(=O)O)c1cc(-c3ccc4ccnc(N)c4c3)ccc12 [Compound 436b, (R)-2-(2-((5-(1-aminoisoquinolin-7-yl)-1′-ethyl-2,3-dihydrospiro[indene-1,4′-piperidin]-3-yl)oxy)phenyl)acetic acid] | < 1000 nM |
| CC1(C)Cc2ccc(-c3cccc4c(N)nccc34)cc2C1Oc1ccccc1CC(=O)O (stereo not shown) [Compound 437f, 2-(2-((6-(1-aminoisoquinolin-5-yl)-2,2-dimethyl-2,3-dihydro-1H-inden-1-yl)oxy)phenyl)acetic acid] | < 1000 nM |
| CC1(C)Cc2ccc(-c3cccc4c(N)nccc34)cc2C1Oc1cc(F)ccc1CC(=O)O (stereo not shown) [Compound 438c, 2-(2-((6-(1-aminoisoquinolin-5-yl)-2,2-dimethyl-2,3-dihydro-1H-inden-1-yl)oxy)-4-fluorophenyl)acetic acid] | < 1000 nM |
| CC1(C)Cc2ccc(-c3ccc4ccnc(N)c4c3)cc2C1Oc1cc(F)ccc1CC(=O)O (stereo not shown) [Compound 439b, 2-(2-((6-(1-aminoisoquinolin-7-yl)-2,2-dimethyl-2,3-dihydro-1H-inden-1-yl)oxy)-4-fluorophenyl)acetic acid] | 1000 to 10000 nM |
| COc1ccc(CC(=O)O)c(OC2c3cc(-c4cccc5c(N)nccc45)ccc3CC2(C)C)c1 (stereo not shown) [Compound 440c, 2-(2-((6-(1-aminoisoquinolin-5-yl)-2,2-dimethyl-2,3-dihydro-1H-inden-1-yl)oxy)-4-methoxyphenyl)acetic acid] | < 1000 nM |
| COc1ccc(CC(=O)O)c(OC2c3cc(-c4ccc5ccnc(N)c5c4)ccc3CC2(C)C)c1 (stereo not shown) [Compound 441b, 2-(2-((6-(1-aminoisoquinolin-7-yl)-2,2-dimethyl-2,3-dihydro-1H-inden-1-yl)oxy)-4-methoxyphenyl)acetic acid] | 1000 to 10000 nM |
| Nc1nccc2c(-c3ccc4c(c3)C(Oc3cc(F)ccc3CC(=O)O)CC43CCCC3)cccc12 (stereo not shown) [Compound 442c, 2-(2-((5′-(1-aminoisoquinolin-5-yl)-2′,3′-dihydrospiro[cyclopentane-1,1′-inden]-3′-yl)oxy)-4-fluorophenyl)acetic acid] | < 1000 nM |
| Nc1nccc2ccc(-c3ccc4c(c3)C(Oc3cc(F)ccc3CC(=O)O)CC43CCCC3)cc12 (stereo not shown) [Compound 443b, 2-(2-((5′-(1-aminoisoquinolin-7-yl)-2′,3′-dihydrospiro[cyclopentane-1,1′-inden]-3′-yl)oxy)-4-fluorophenyl)acetic acid] | < 1000 nM |

Continued, values first:

| IC50 | Compound |
| --- | --- |
| < 1000 nM | COC(=O)N1CCC2(CC1)CC(Oc1cc(C)ccc1CC(=O)O)c1cc(-c3cccc4c(N)nccc34)ccc12 (stereo not shown) [Compound 413b, 2-(2-((5-(1-aminoisoquinolin-5-yl)-1′-(methoxycarbonyl)-2,3-dihydrospiro[indene-1,4′-piperidin]-3-yl)oxy)-4-methylphenyl)acetic acid] |
| < 1000 nM | Nc1nccc2ccc(-c3ccc4c(c3)[C@H](Oc3ccccc3CC(=O)O)CC43CCN(CC(=O)O)CC3)cc12 [Compound 414c, (R)-2-(2-((5-(1-aminoisoquinolin-7-yl)-1′-(carboxymethyl)-2,3-dihydrospiro[indene-1,4′-piperidin]-3-yl)oxy)phenyl)acetic acid] |
| < 1000 nM | CCCN1CCC2(CC1)C[C@@H](Oc1ccccc1CC(=O)O)c1cc(-c3ccc4ccnc(N)c4c3)ccc12 [Compound 416c, (R)-2-(2-((5-(1-aminoisoquinolin-7-yl)-1′-propyl-2,3-dihydrospiro[indene-1,4′-piperidin]-3-yl)oxy)phenyl)acetic acid] |
| < 1000 nM | COc1ccc(CC(=O)O)c(O[C@@H]2CCc3ccc(-c4ccc5ccnc(N)c5c4)cc32)c1 [Compound 419c, (R)-2-(2-((6-(1-aminoisoquinolin-7-yl)-2,3-dihydro-1H-inden-1-yl)oxy)-4-methoxyphenyl)acetic acid] |
| < 1000 nM | COc1ccc(CC(=O)O)c(O[C@@H]2CCc3ccc(-c4cccc5c(N)nccc45)cc32)c1 [Compound 420b, (R)-2-(2-((6-(1-aminoisoquinolin-5-yl)-2,3-dihydro-1H-inden-1-yl)oxy)-4-methoxyphenyl)acetic acid] |
| < 1000 nM | Nc1nccc2ccc(-c3ccc4c(c3)[C@H](Oc3cc(F)ccc3CC(=O)O)CC4)cc12 [Compound 421c, (R)-2-(2-((6-(1-aminoisoquinolin-7-yl)-2,3-dihydro-1H-inden-1-yl)oxy)-4-fluorophenyl)acetic acid] |
| < 1000 nM | Nc1nccc2c(-c3ccc4c(c3)[C@H](Oc3cc(F)ccc3CC(=O)O)CC4)cccc12 [Compound 422b, (R)-2-(2-((6-(1-aminoisoquinolin-5-yl)-2,3-dihydro-1H-inden-1-yl)oxy)-4-fluorophenyl)acetic acid] |
| < 1000 nM | N#Cc1ccc(CC(=O)O)c(O[C@@H]2CCc3ccc(-c4ccc5ccnc(N)c5c4)cc32)c1 [Compound 423c, (R)-2-(2-((6-(1-aminoisoquinolin-7-yl)-2,3-dihydro-1H-inden-1-yl)oxy)-4-cyanophenyl)acetic acid] |
| < 1000 nM | N#Cc1ccc(CC(=O)O)c(O[C@@H]2CCc3ccc(-c4cccc5c(N)nccc45)cc32)c1 [Compound 424b, (R)-2-(2-((6-(1-aminoisoquinolin-5-yl)-2,3-dihydro-1H-inden-1-yl)oxy)-4-cyanophenyl)acetic acid] |
| < 1000 nM | Cc1ccc(CC(=O)O)c(O[C@@H]2CCc3ccc(-c4ccc5ccnc(N)c5c4)cc32)c1 [Compound 425c, (R)-2-(2-((6-(1-aminoisoquinolin-7-yl)-2,3-dihydro-1H-inden-1-yl)oxy)-4-methylphenyl)acetic acid] |
| < 1000 nM | Cc1ccc(CC(=O)O)c(O[C@@H]2CCc3ccc(-c4cccc5c(N)nccc45)cc32)c1 [Compound 426b, (R)-2-(2-((6-(1-aminoisoquinolin-5-yl)-2,3-dihydro-1H-inden-1-yl)oxy)-4-methylphenyl)acetic acid] |
| < 1000 nM | Nc1nccc2ccc(-c3ccc4c(c3)[C@H](Oc3cc(C(F)(F)F)ccc3CC(=O)O)CC4)cc12 [Compound 427c, (R)-2-(2-((6-(1-aminoisoquinolin-7-yl)-2,3-dihydro-1H-inden-1-yl)oxy)-4-(trifluoromethyl)phenyl)acetic acid] |
| < 1000 nM | Nc1nccc2c(-c3ccc4c(c3)[C@H](Oc3cc(C(F)(F)F)ccc3CC(=O)O)CC4)cccc12 [Compound 428b, (R)-2-(2-((6-(1-aminoisoquinolin-5-yl)-2,3-dihydro-1H-inden-1-yl)oxy)-4-(trifluoromethyl)phenyl)acetic acid] |
| < 1000 nM | COc1ccc(O[C@@H]2CCc3ccc(-c4cccc5c(N)nccc45)cc32)c(CC(=O)O)c1 [Compound 431c, (R)-2-(2-((6-(1-aminoisoquinolin-5-yl)-2,3-dihydro-1H-inden-1-yl)oxy)-5-methoxyphenyl)acetic acid] |
